{"source": "patent US20080268073A1", "about": "“CERAMIDASE INHIBITOR” (TAKARA BIO INC., priority 2003, published 2008)", "test_system": "neutral/alkaline RatBrain Ceramidase", "assay": "Inhibitory activity on neutral/alkaline RatBrain Ceramidase (Reference Example 1, NBD-C12-Ceramide, HPLC)", "assay_type": "biochemical, rat", "settings": "concentration of 5 μM; NBD-C12-Ceramide 0.02 mM", "procedure": "As neutral/alkaline ceramidase, two kinds of ceramidase derived from Pseudomonas aeruginosa strain AN17 and ceramidase derived from a rat brain were used.\nOn the other hand, a crude enzyme solution of rat brain-derived ceramidase was prepared in the following manner. First, two pieces (3.5 g) of rat brain tissues were homogenized in 30 mL of 0.25 M sucrose solution with a Potter-Elvehjem homogenizer. The resulting homogenate was centrifuged at 700×g for 10 minutes, then the supernatant was centrifuged at 25,000×g for 10 minutes, and the resulting supernatant was further centrifuged at 100,000×g for 60 minutes to give precipitates which were then suspended in 3 mL of 25 mM Tris-HCl buffer (pH 8.0). Nine milliliters of 25 mM Tris-HCl buffer (pH 8.0) comprising 0.5% Triton X-100 was added to the resulting suspension which was then subjected to extraction by leaving the suspension on ice for 2 hours. […]\nThe inhibitory activity on the neutral/alkaline RatBrain Ceramidase was determined in the following manner. […] The reaction was terminated by adding 75 microliters of methanol, and 50 microliters of aliquot of the reaction solution was analyzed by HPLC.\nHPLC analysis was carried out in the following manner. […] Detection was carried out with a fluorescence detector at an excitation light of 465 nm and a fluorescent light of 535 nm. […]"}
{"molecule": "CCCC/C=C/CCCC(O)C(CCCCCCCCCCCCCCCC/C=C/CC(=O)O)C(CO)C(C)O", "note": "(single isomer, unassigned) [purified substance]", "values": [{"measurement": "inhibition of the activity of neutral/alkaline ceramidase derived from a rat brain", "value": 50, "unit": "%"}]}
